# Test results published in paper PMC8151892, “Partial Agonist Activity of Neonicotinoids on Rat Nicotinic Receptors: Consequences over Epinephrine Secretion and In Vivo Blood Pressure” (International Journal of Molecular Sciences, 2021).
# Biological target: T1, α3β4 nicotinic acetylcholine receptor (α3 subunit) (Rattus norvegicus, UniProt P04757+P12392)
# T1 construct: gene Chrna3; complete open reading frames of rat α3 and β4 subunits, RNA 1:1, Xenopus oocytes; with nAChR β4 subunit (Chrnb4)
# Assay: two-electrode voltage clamp in Xenopus oocytes (partial agonist)
# Assay type: cell-based
# T1 sequence (P04757 26-499): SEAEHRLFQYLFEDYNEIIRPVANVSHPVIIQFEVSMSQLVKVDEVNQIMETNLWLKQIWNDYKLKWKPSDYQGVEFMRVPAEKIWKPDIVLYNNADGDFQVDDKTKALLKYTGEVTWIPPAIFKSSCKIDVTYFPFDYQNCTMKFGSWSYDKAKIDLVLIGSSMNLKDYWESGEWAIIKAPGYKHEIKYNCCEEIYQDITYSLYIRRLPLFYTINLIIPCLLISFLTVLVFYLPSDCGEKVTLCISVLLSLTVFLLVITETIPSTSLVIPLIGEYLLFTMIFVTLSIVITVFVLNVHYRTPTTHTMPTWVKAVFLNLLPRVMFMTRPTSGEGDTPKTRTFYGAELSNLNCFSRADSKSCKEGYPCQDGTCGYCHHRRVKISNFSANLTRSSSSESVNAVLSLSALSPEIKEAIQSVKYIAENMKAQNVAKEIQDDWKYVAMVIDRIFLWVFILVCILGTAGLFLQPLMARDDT
# T1 sequence (P12392 21-495): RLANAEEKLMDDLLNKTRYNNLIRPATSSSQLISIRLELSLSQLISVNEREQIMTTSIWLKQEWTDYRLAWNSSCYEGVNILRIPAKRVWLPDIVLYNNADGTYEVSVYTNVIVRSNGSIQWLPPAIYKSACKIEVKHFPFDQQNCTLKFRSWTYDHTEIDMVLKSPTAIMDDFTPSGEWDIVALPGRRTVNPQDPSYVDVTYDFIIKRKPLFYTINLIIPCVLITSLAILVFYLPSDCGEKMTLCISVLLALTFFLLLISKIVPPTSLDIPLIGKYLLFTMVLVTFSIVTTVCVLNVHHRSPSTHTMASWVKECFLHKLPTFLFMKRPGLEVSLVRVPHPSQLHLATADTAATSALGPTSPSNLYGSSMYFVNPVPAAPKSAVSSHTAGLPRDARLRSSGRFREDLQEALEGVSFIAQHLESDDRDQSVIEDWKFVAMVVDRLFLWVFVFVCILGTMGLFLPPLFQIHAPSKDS
smiles,measurement,value
"CN/C(=N\[N+](=O)[O-])NCc1cnc(Cl)s1 [CLO, clothianidin]",EC50,8.39 ± 0.77 mM
